Test results as given in patent publication US5726203A, “Qinghaosu derivatives against AIDS” (priority 1993, dated 1998).

How the values were obtained:
[1] = cited from earlier work
U937 HIV-1 [2] = experiment: Inhibition effect on HIV-1 infected U937 cells, activity of reverse transcriptase; type: cell-based; conditions: control 24502
Description: (§1) Furthermore, a part of the compounds according to the present invention were used to test their inhibition effect on U937 cell line (macrophage cell line)according to the methods in Experiment 1.

HIV-1 (MT4) = experiment: Anti-HIV effect on MT4 cells, virus antigen expression (immunoenzymatic method); type: cell-based
Description: The virus used was HIV-1 which had been obtained from Professor Montagnier of the Pastear Institute, France. The virus titer used in the experiment was 1×10^4 TCID50 /ml. The cell culture used was CEM cell line which was cultivated in the HIV laboratory of Institute of Virology, Chinese Academy of Preventive Medicine, for cultivation storage of HIV-1.
The compounds used in the experiment were qinghaosu, dihydroqinghaosu, Artesunate, Artemether, dihydroqinghaosu-methylcarbamate, dihydroqinghaosu-benzenecarbamate, qinghaosu-morpholinyl propylether maleate, dihydroqinghaosu-diethyl amino ethyl ether maleate, deoxyqinghaosu-morpholinyl ethyl ether maleate, qinghaosu-morpholinyl propanol ether maleate, qinghaosu-3,5-dimonpholinyl methyl-4-hydroxy benzyl ether maleate, dihydroqinghaosu-m-chlorobenzoate, qinghaosu-3-pyrrolidinylmethyl-4-hydroxybenzoate oxalate, and qinghaosu-3-morpholinylmethyl-4-hydroxybenzoate oxalate. […] The concentration of the original solution of these compounds were all 1 mg/ml.
(§2) a. Freshly cultured MT4 cells (5×10^5 /ml) were co-cultivated with the virus fluid (10^3 TCID50 /ml) in a CO2 incubator at 37° C. for 1-1.5 hours. RPMI 1640 complete medium (containing 10% Bovine serum and antibiotics, such as penicillin) was used to wash the unbound virus.
(§3) Complete medium was added to correct the concentration for use.
(§4) The experiment was carried out on the plates with 96 wells. 0.1 ml of the above-mentioned infected MT4 cell suspension was added into each well, and then 0.1 ml of various concentrations of the drugs were added. […] Each concentration of the drugs was added into two wells. Both the experiment group and the control group were incubated in a CO2 incubator at 37° C. The drug solution were changed 3 days later, and the following observations were carried out 6 days afterwards.
b. Observation on the growth situation of cells. Trypan blue dye was used to observe the quantity of live cells in each group.
(§5) c. Determination of the virus antigen expression. The immunoenzymatic method was used to examine the virus antigen expression. Cells from each group were separately smeared in two wells. They were fixed with cold acetone, HIV-positive serum was dropped into the wells. After incubated in a CO2 incubator at 37° C. for 30 minutes, they were washed with PBS for 3 times. Enzyme-labelled SPA was dropped into the wells. They were incubated in the same condition for 30 minutes, washed with PBS for 3 times, and then put in substrate solution to stain for 2-3 minutes, washed with distilled water, and observed under microscope. Normal cells were colorless, whereas virus-carrying cells appeared browrish red.
The mark used were as follows:
The experiment was repeated two to three times.
The concentration of the original fluid of these compounds were all 1 mg/ml. 0.1 ml was taken and added into 0.1 ml of virus-carrying cell suspension, thus the reaction concentrations were as follows: in the original fluid group, 0.1 mg/0.2 ml, i.e., 0.5 mg/ml; in 1×10^-1group, 0.05 mg/ml; in 1×10^-2 group, 0.005 mg/ml; in 1×10^-3 group, 0.0005 mg/ml, i.e., 0.5 μg/ml; and on the analogy of this.

[3] = test system: virus within infected macrophages; conditions: cited from earlier work
HIV = conditions: cited from earlier work
U937 HIV-1 [4] = experiment: Inhibition effect on HIV-1 infected U937 cells (macrophage cell line), HIV antigen test (IE); type: cell-based; conditions: for Antigen test (IE): U937 HIV-1
Protocol: as §2, §3, §4, §5, §1

[5] = Subacute toxicologic study; conditions: in vivo, read-out: basic safe dosage
Plasmodium Berghei = experiment: Peters' four day inhibition test in mice, erythrocytic stage of Plasmodium Berghei; type: in vivo; conditions: once a day D0-D3, Hybrid Kunming strain mice, read-out: SD50 (the source's name)
Description: Effect on Erythrocytic Stage of Plasmodium Berghei 1. "Four day inhibition test" in mice To determinate the SD50 with Peters' "four day inhibition test". Hybrid Kunming strain mice, body weight 18-22 g, were inculated with 1×10^7 parasites infected RBC intraperitoneally on D0. Dihydroqinghaosu-methylcarbamate, dihydroqinghaosu-butylcarbamate, dihydroqinghaosu-benzenecarbamate and dihydroqinghaosu-4-nitrobenzenecarbamate with different concentration were given once a day from D0 -D3. Blood smears from mouse's tail were made on D4, stained with Gimsa reagent and examined under microscope to count the infected and uninfected erthrocyte to get infected rate. Inhibitory rates of different dosages were calculated by following formula. The SD50 was calculated by the simplified probit analysis: [formula]

Acute toxicity in mice = type: in vivo; conditions: for LD50: mouse, in vivo, po
Protocol: Animals: Hybrid swiss strain mice (provided by Animal House of Institute of Chinese Mateia Media, China Academy of Traditional Chinese Medicine), 20-22 grams, less than 6 weeks age of both sexes fed in laboretory for 3-5 days observation and a random taking food and drinking.
Drugs: Dihydroqinghaosu-methylcarbamate and dihydroqinghaosu-benzenecarbamate.
Above two drugs in powder form were dissolved into peanut oil. The biggest dose were 2000 mg/kg and 2161 mg/kg respectively. The distances between two dose groups were 0.7 and 0.68 respectively, with 5 dose groups each drugs.
Method: The mice were given single dose of above compound respectively intragastrically, the acute intoxication manifestrations were observed the LD value (LD5, LD50 and LD95) and B value were determined by three days mortality.

HIV-infected macrophages = conditions: cited from earlier work
[6] = F + M, single dose intragastrically
[7] = F, single dose intragastrically
[8] = M, single dose intragastrically

Cc1cn([C@H]2C[C@H](N=[N+]=[N-])[C@@H](CO)O2)c(=O)[nH]c1=O [AZT, 3'-azido-3'-deoxythymidine, reference compound]
toxicity after use ([1]; 4-6 weeks after the use of AZT): inhibition of bone marrow appears, then severe anemia develops | Activity of reverse transcription (CPM) (U937 HIV-1 [2]; 1 μg/ml): 10865 CPM | effect on HIV-1 (MT4), virus antigen expression (HIV-1 (MT4); 1 × 10^-1 (50 μg/ml)): - (positive cells were not seen in the whole well) | virus-carrying (pink) cells on the smear (HIV-1 (MT4); 1×10^-1, 1×10^-2, 1×10^-3 group): entirely no pink cells | effect on HIV-1 (MT4), virus antigen expression (HIV-1 (MT4); 1 × 10^-2 (5 μg/ml)): - (positive cells were not seen in the whole well) | effect on HIV-1 (MT4), virus antigen expression (HIV-1 (MT4); 1 × 10^-3 (0.5 μg/ml)): - (positive cells were not seen in the whole well) | inhibitory effect on the virus within infected macrophages [3]: does not exert inhibitory effect on the virus within infected macrophages | anti-HIV activity in vitro (HIV): found to possess anti-HIV activity in vitro | Antigen test (IE) (U937 HIV-1 [4]; 1 μg/ml): + (there were 2-3 or more positive cells in the whole well) | inhibition on U937 infected HIV-1 (U937 HIV-1 [4]; from Table 2): does not show the inhibition

CC1CCC2C(C)C(OC(=O)Nc3ccccc3)OC3OC4(C)CCC1C32OO4 (stereo not shown) [Dihydroqinghaosu-benzenecarbamate]
NOAEL [5]: 54 mg/kg/day | Activity of reverse transcription (CPM) (U937 HIV-1 [2]; 50 μg/ml): 2305 CPM | ED50 (Plasmodium Berghei): 0.29 mg/kg | effect on HIV-1 (MT4), virus antigen expression (HIV-1 (MT4); 1 × 10^-1 (50 μg/ml)): - (positive cells were not seen in the whole well) | effect on HIV-1 (MT4), virus antigen expression (HIV-1 (MT4); 1 × 10^-2 (5 μg/ml)): - (positive cells were not seen in the whole well) | effect on HIV-1 (MT4), virus antigen expression (HIV-1 (MT4); 1 × 10^-3 (0.5 μg/ml)): - (positive cells were not seen in the whole well) | effect on HIV-1 (MT4), virus antigen expression (HIV-1 (MT4); 1 × 10^-4 (0.05 μg/ml)): ± (there were only 1-2 doubtful positive cells in whole well) | inhibition on HIV (HIV-1 (MT4); according to Table 1): distinct inhibition on HIV | Death distribution of mice, exp./death (Acute toxicity in mice; 480 mg/kg, female): 6/0 | Death distribution of mice, exp./death (Acute toxicity in mice; 480 mg/kg, female + male): 12/1 | Death distribution of mice, exp./death (Acute toxicity in mice; 480 mg/kg, male): 6/1 | Death distribution of mice, exp./death (Acute toxicity in mice; 686 mg/kg, female): 6/1 | Death distribution of mice, exp./death (Acute toxicity in mice; 686 mg/kg, female + male): 12/3 | Death distribution of mice, exp./death (Acute toxicity in mice; 686 mg/kg, male): 6/2 | Death distribution of mice, exp./death (Acute toxicity in mice; 980 mg/kg, female): 6/2 | Death distribution of mice, exp./death (Acute toxicity in mice; 980 mg/kg, female + male): 12/4 | Death distribution of mice, exp./death (Acute toxicity in mice; 980 mg/kg, male): 6/2 | Death distribution of mice, exp./death (Acute toxicity in mice; 1400 mg/kg, female): 6/4 | Death distribution of mice, exp./death (Acute toxicity in mice; 1400 mg/kg, female + male): 12/7 | Death distribution of mice, exp./death (Acute toxicity in mice; 1400 mg/kg, male): 6/3 | Death distribution of mice, exp./death (Acute toxicity in mice; 2000 mg/kg, female): 6/6 | Death distribution of mice, exp./death (Acute toxicity in mice; 2000 mg/kg, female + male): 12/12 | Death distribution of mice, exp./death (Acute toxicity in mice; 2000 mg/kg, male): 6/6 | LD5 (Acute toxicity in mice; [6]): 463.33 mg/kg | LD95 (Acute toxicity in mice; [6]): 2452.08 mg/kg | slope (B) (Acute toxicity in mice; [6]): 4.546 | LD5 (Acute toxicity in mice; [7]): 603.91 mg/kg | LD95 (Acute toxicity in mice; [7]): 1993.51 mg/kg | slope (B) (Acute toxicity in mice; [7]): 6.343 | LD5 (Acute toxicity in mice; [8]): 352.10 mg/kg | LD95 (Acute toxicity in mice; [8]): 3069.59 mg/kg | slope (B) (Acute toxicity in mice; [8]): 3.498 | LD50 (Acute toxicity in mice; [6]): 1070 mg/kg | LD50 (Acute toxicity in mice; [7]): 1100 mg/kg | LD50 (Acute toxicity in mice; P.O. (per os)): 1060 mg/kg | LD50 (Acute toxicity in mice; single dose intragastrically): 1040 mg/kg | Antigen test (IE) (U937 HIV-1 [4]; 50 μg/ml): - (positive cells were not seen in the whole well)

Trichosanthin
neurotoxicity in clinical trial ([1]; clinical trial): neurotoxicity in clinical trial, and in severe cases temporary dementia and even coma appeared | toxic substance from treated HIV-infected macrophages (HIV-infected macrophages): produced and released a soluble toxic substance which might exert serious destructive effect to human brain cells
